According to patent US20260028353:
Where two headings read alike, the source gives them in different places.

Tests used:
[1] = 2 steps

`COC(=O)[C@@H]1CCCN(C(=O)[C@H]2NC(=O)[C@H](C(C)C)N3CCC[C@@H]3COc3ccccc3CN(C)[C@@H]2c2nc(Br)cs2)N1` gave a ring closure, isolated yield (from COC(=O)[C@@H]1CCCN(C(=O)[C@@H](N)[C@@H](c2nc(Br)cs2)N(C)Cc2ccccc2OC[C@H]2CCCN2[C@H](C(=O)O)C(C)C)N1, amide bond, 13-membered ring, HATU/DIEA, DMF, 12.4 mM, 20.0 °C, 2 steps) of 55%.
“(9S,15S,18S,20aS,21aR)-2-ethyl-18-isopropyl-3-(2-((S)-1-methoxyethyl)pyridin-3-yl)-5,5,19-trimethyl-2,4,5,6,9,10,11,12,15,16,18,19,21,21a,22,23-hexadecahydro-8H-9,13-epimino-1,29-etheno-15,26-methano-24,28-(metheno)cyclopropa[o]pyrrolo[3,4-z][1]oxa[7,10,13,18]tetraazacyclotriacontine-8,14,17,20(20aH)-tetraone” showed a ring closure, yield after HPLC ([1]; amide bond, 14-membered ring) of 1.5%.
Compound “(9S,15S,18R,22S)-2-ethyl-18-isopropyl-3-(2-((S)-1-methoxyethyl)-5-(4-methylpiperazin-1-y)pyridin-3-yl)-5,5-dimethyl-22-phenyl-2,4,5,6,9,10,11,12,15,16,18,19,22,23-tetradecahydro-8H,21H-9,13-epimino-1,29-etheno-15,26-methano-24,28-(metheno)pyrrolo[3,4-l][1,17]dioxa[4,23,26]triazacyclononacosine-8,14,17-trione” has a ring closure, isolated yield (amide bond, 13-membered ring, 2 steps) of 6.4%.
In the case of `COC(=O)[C@@H]1Cc2cc(cc(Cl)n2)C=CCOC[C@@H](C(C)C)C(=O)N1`, the ring closure, isolated yield (from C=CCOC[C@H](C(=O)N[C@@H](Cc1cc(C=C)cc(Br)n1)C(=O)OC)C(C)C, rcm bond, 13-membered ring, Grubbs II (0.1 eq), DCM, 2.28 mM, 40.0 °C) is reported as 81%.
“(9S,15S,18S,Z)-2-ethyl-18-isopropyl-3-(2-((S)-1-methoxyethyl)pyridin-3-yl)-5,5,19-trimethyl-2,4,5,6,9,10,11,12,15,16,18,19,23,24-tetradecahydro-8H,14H-9,13-epimino-1,30-etheno-15,27-methano-25,29-(metheno)pyrrolo[3,4-z][1]oxa[7,10,13,18]tetraazacyclotriacontine-8,14,17,20-tetraone” gave a ring closure, isolated yield (rcm bond, 14-membered ring, Grubbs II, DCM, 7.1 mM, 40.0 °C) of 16%.
`CCOC(=O)[C@@H]1Cc2nc(Br)sc2CCCC(=O)N(C)[C@@H](C(C)C)C(=O)N1` gave a ring closure, isolated yield (from CCOC(=O)[C@@H](N)Cc1nc(Br)sc1CCCC(=O)N(C)[C@H](C(=O)O)C(C)C, amide bond, 12-membered ring, HATU/DIEA, DMF, 209.0 mM, 0.0 °C, 3 steps) of 28%.
With “(9S,15S,18S,20aS,21aS,E)-2-ethyl-18-isopropyl-3-(2-((S)-1-methoxyethyl)pyridin-3-yl)-5,5,19-trimethyl-2,4,5,6,9,10,11,12,15,16,18,19,21,21a-tetradecahydro-8H-9,13-epimino-1,29-etheno-15,26-methano-24,28-(metheno)cyclopropa[o]pyrrolo[3,4-z][1]oxa[7,10,13]triazacyclotriacontine-8,14,17,20(20aH)-tetraone” the ring closure, isolated yield (rcm bond, 14-membered ring, Grubbs II (0.5 eq), DCM, 12.0 mM, 40.0 °C) was 11%.
For “(9S,15S,18S)-3-(5-(4-cyclopropylpiperazin-1-yl)-2-((S)-1-methoxyethyl)pyridin-3-yl)-2-ethyl-18-isopropyl-5,5-dimethyl-22-phenyl-2,4,5,6,9,10,11,12,15,16,20,21,22,23-tetradecahydro-8H,14H-9,13-epimino-1,29-etheno-15,26-methano-24,28-(metheno)pyrrolo[3,4-q][1,13]dioxa[4,7,27]triazacyclononacosine-8,14,17(18H)-trione”, the ring closure, yield after HPLC ([1]; ester bond, 18-membered ring) was 23%.
For “tert-butyl ((9S,15S,18S,22R)-2-ethyl-18-isopropyl-3-(2-((S)-1-methoxyethyl)pyridin-3-yl)-5,5,19-trimethyl-8,14,17,20-tetraoxo-2,4,5,6,9,10,11,12,15,16,17,18,19,20,21,22,23,24-octadecahydro-8H,14H-9,13-epimino-1,31-etheno-15,28-methano-26,30-(metheno)pyrrolo[3,4-a1][1,19]dioxa[7,10,13]triazacyclohentriacontin-22-yl)carbamate”, the ring closure, isolated yield (amide bond, 15-membered ring, 3 steps) was 27%.
Work on “tert-butyl 4-((9S,15S,18S,21 S)-3-(5-(4-cyclopropylpiperazin-1-yl)-2-((S)-1-methoxyethyl)pyridin-3-yl)-2-ethyl-18-isopropyl-5,5-dimethyl-8,14,17-trioxo-2,4,5,6,9,10,11,12,15,16,17,18,21,22-tetradecahydro-8H,14H,20H-9,13-epimino-1,29-etheno-15,26-methano-24,28-(metheno)pyrrolo[3,4-q][1,13,26]trioxa[4,7]diazacyclononacosin-21-yl)piperazine-1-carboxylate” yielded a ring closure, isolated yield (ether bond, 13-membered ring) of 40%.
For “(9S,15S,18S)-25-benzyl-2-ethyl-18-isopropyl-3-(2-((S)-1-methoxyethyl)pyridin-3-yl)-5,5,19-trimethyl-2,4,5,6,9,10,11,12,15,16,18,19,22,23,24,25-hexadecahydro-8H-9,13-epimino-1,31-etheno-15,28-methano-26,30-(metheno)pyrrolo[3,4-a1][1]oxa[7,10,13,19]tetraazacyclohentriacontine-8,14,17,20(21H)-tetraone”, the ring closure, isolated yield (amide bond, 15-membered ring, 2 steps) was 95%.
“(9S,15S,18R)-3-(5-(4-cyclopropylpiperazin-1-yl)-2-((S)-1-methoxyethyl)pyridin-3-yl)-2-ethyl-18-isopropyl-5,5-dimethyl-21-phenyl-2,4,5,6,9,10,11,12,15,16,19,22-dodecahydro-8H,14H-9,13-epimino-1,29-etheno-15,26-methano-24,28-(metheno)pyrrolo[3,4-u][1,17]dioxa[4,8,11]triazacyclononacosine-8,14,17(18H)-trione” showed a ring closure, isolated yield (other bond, 13-membered ring, 2 steps) of 62%.
For “(9S,15S,18R,21R)-3-(5-(4-cyclopropylpiperazin-1-yl)-2-((S)-1-methoxyethyl)pyridin-3-yl)-21-(2,6-dichloropyridin-4-yl)-2-ethyl-18-isopropyl-5,5-dimethyl-2,4,5,6,9,10,11,12,15,16,18,19,22,23-tetradecahydro-8H,21H-9,13-epimino-1,29-etheno-15,26-methano-24,28-(metheno)pyrrolo[3,4-l][1,17]dioxa[4,23,26]triazacyclononacosine-8,14,17-trione”, the ring closure, isolated yield (amide bond, 13-membered ring, EDCI/HOBt/DIEA, DCM, 2 steps) was 66%.
`COC(=O)[C@@H]1CCCN(C(=O)[C@@H]2Cc3cc(Br)cc(c3)CN(c3ccccc3)CCO[C@@H](C(C)C)C(=O)N2)N1` gave a ring closure, isolated yield (from COC(=O)[C@@H]1CCCN(C(=O)[C@@H](N)Cc2cc(Br)cc(CN(CCO[C@H](C(=O)O)C(C)C)c3ccccc3)c2)N1, amide bond, 13-membered ring, EDCI/HOBt/DIEA, DCM, 107.0 mM, 25.0 °C, 2 steps) of 34%.
